In patent publication US9238654B2, “Singleton inhibitors of sumoylation enzymes and methods for their use” (CITY OF HOPE, priority 2010, dated 2016):
Read-outs that look alike come from different tables or passages of the source.

Tests used:
SUMO E1 or SUMO E2 = target: T1, SUMO E1 or SUMO E2 (Homo sapiens, UniProt Q9UBE0+Q9UBT2); test: SUMOylation HTS assay, SUMO (AlphaScreen-BSA), SUMOylation of RanGAP1; assay type: biochemical
T1 sequence (Q9UBE0 1-346): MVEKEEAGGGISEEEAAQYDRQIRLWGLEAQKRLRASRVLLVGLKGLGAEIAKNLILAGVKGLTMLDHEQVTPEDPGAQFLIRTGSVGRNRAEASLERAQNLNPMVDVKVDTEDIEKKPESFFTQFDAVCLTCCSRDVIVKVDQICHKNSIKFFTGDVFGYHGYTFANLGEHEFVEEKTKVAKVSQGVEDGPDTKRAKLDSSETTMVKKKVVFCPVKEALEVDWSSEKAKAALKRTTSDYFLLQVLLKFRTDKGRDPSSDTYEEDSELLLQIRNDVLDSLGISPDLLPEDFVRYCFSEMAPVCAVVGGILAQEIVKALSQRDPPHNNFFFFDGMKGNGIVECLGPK
T1 sequence (Q9UBT2 1-640): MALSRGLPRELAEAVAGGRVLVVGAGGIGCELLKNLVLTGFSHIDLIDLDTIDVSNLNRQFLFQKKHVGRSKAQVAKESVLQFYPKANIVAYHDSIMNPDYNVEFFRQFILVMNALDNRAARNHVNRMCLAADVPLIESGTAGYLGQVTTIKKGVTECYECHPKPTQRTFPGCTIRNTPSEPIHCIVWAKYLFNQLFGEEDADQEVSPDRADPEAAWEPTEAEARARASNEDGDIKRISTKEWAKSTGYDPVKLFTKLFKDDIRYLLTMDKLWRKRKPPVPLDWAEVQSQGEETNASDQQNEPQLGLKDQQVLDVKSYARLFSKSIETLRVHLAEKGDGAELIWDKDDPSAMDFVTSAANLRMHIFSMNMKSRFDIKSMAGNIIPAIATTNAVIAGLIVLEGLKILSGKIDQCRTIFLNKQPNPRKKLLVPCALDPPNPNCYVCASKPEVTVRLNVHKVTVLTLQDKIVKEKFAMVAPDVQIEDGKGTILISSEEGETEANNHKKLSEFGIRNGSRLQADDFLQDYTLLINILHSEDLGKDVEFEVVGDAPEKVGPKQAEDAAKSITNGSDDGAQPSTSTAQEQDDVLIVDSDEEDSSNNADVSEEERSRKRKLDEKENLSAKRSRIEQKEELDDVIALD
Method: (§1) A lead compound was selected, and is identified herein as MLS0437113 (FIG. 3).
(§2) Each singleton analog was analyzed to determine its inhibitory effect on SUMOylation and ubiquitination, tested both in the HTS format and gel-based format (FIG. 4).

[1] = Stability in Tris buffer, parent remaining by HPLC-MS; assay type: physicochemical; details: for % Remaining after 60 min in 50 mM Tris (−BSA): without BSA; for % Remaining after 60 min in 50 mM Tris (+BSA): with BSA
Method: Stable compounds in Tris were tested with and without BSA. Amount of parent compound remaining was quantified using HPLC-MS (area under the curve (AUC) method).

SUMO E1 [2] = target: T2, SUMO E1 (Homo sapiens, UniProt Q9UBE0+Q9UBT2); test: Rate of SUMO~E1 product formation with increasing inhibitor concentrations; assay type: biochemical
T2 sequence (Q9UBE0 1-346): T1 sequence (Q9UBE0 1-346)
T2 sequence (Q9UBT2 1-640): T1 sequence (Q9UBT2 1-640)
Method: Data is analyzed by fitting to a rectangular hyperbolic to extract IC50 (lower left) or the solution to a quadratic equation to determine Ki^app (lower right).
Their inhibitory constants were measured in the reaction to monitor the rate of SUMO˜E1 product formation in the presence of increasing concentrations of inhibitors (FIG. 5). Inhibition studies were performed in both the presence and absence of 0.02% Triton X-100 to ensure against potential promiscuous inhibition by premicelles due to the formation of aggregates. Inhibition data was fit to a rectangular hyperbolic to extract an IC50 (Equation 1). The Ki^app was extracted by fitting the percent inhibition as a function of inhibitor concentration using equations 1 and 2 (FIG. 5) (Spengler et al. 2005). % Inhibition=([I]*Vmax)/([I]+IC50) (Equation 1) v/v0=(1−(([E]0+[I]+Ki^app)−(([E]0+[I]+Ki^app)^2−4([E]0[I]))^1/2)/2[E]0 (Equation 2)

[3] = test system: Immortalized human hepatocytes, Fa2N-4 cells; test: Hepatocyte toxicity, cell viability by cellular ATP levels; assay type: cell-based; details: concentrations up to 50 μM, 24 hrs
Method: FIG. 10 illustrates that E1 inhibitor MLS-0437113 has low toxicity in a normal liver cell line. Immortalized human hepatocytes, Fa2N-4 cells (XenoTech) were seeded at ˜50-60K cells/well, and incubated with a range of concentrations (0.01-50 μM) 1, in duplicate, for 24 hrs at 37° C., 5% CO2. Cell viability was determined by cellular ATP levels using the Luminescence ATP Detection Assay System (Tecan).

SUMO E1 [4] = target: T2, SUMO E1; test: Gel-based assay of SUMO-RanGap1, E1-SUMO and E2~SUMO thioester conjugate formation; assay type: biochemical; details: for Inhibitory effect on SUMOylation, comparison within the series: HTS and gel-based format, each inhibitor 10 μM (FIG. 4); for SUMO-RanGap1 and SUMO-E2 Conjugation Inhibition: strength in words
Method: FIG. 4 illustrates a representative assay to determine the efficacy of E1 inhibitors generated from a singleton probe. Stereo-specific effects of this series in inhibiting the SUMO E1. […] Negative and positive controls were reactions in the absence and presence of ATP. […] The compounds that are immediately right to them in the assays, MLS-0437114 and MLS-0437121, are their stereo-isomers, respectively. The stereo chemistry was determined by X-ray crystallography.
as §2
The molecular weight (MW), IC50, strength of SUMO-RanGap1 and SUMO-E2 conjugation inhibition of the SUMO E1 inhibitors derived from the singleton scaffold (see Table 1 above for structures) generated according to the embodiments herein are shown in Table 3 below.

ubiquitin E1 = target: T3, ubiquitin E1 (Homo sapiens, UniProt P22314); test: Poly-ubiquitination assay using ubiquitin, ubiquitin E1, Ubc5 and Apc11; assay type: biochemical; details: SUMO E1 versus ubiquitin E1, derived from the IC50s of HTS assays
T3 sequence (P22314 1-1058): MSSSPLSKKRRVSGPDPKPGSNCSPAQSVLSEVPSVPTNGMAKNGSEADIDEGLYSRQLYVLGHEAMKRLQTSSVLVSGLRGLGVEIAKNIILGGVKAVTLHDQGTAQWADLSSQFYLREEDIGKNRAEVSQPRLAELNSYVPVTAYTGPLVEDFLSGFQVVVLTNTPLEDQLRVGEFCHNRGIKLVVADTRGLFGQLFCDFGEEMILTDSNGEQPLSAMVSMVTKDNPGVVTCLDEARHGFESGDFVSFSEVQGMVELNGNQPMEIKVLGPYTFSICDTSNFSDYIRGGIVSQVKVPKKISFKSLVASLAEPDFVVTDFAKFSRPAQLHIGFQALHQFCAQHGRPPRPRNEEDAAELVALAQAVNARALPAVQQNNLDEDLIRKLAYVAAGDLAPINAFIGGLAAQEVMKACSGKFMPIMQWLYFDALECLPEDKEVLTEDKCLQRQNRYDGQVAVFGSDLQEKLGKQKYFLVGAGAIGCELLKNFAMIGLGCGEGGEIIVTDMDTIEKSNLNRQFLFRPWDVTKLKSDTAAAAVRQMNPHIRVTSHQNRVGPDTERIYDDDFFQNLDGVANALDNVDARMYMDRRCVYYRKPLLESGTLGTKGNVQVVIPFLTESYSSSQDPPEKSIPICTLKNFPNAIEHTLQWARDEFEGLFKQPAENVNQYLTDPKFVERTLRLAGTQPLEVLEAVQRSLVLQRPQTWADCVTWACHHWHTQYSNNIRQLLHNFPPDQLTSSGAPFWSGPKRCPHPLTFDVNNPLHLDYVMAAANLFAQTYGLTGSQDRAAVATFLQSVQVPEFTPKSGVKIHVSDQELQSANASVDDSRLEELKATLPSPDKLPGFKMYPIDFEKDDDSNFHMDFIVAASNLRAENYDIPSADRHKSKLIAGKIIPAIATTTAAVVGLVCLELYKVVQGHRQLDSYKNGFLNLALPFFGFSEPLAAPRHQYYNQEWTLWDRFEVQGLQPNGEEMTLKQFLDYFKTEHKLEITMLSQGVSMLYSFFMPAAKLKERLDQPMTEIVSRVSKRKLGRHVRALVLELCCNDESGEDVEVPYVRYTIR
Method: as §1, §2

MCF-7 cells = test: Inhibition of global SUMOylation in cells, Western blot with anti-SUMO antibodies; assay type: cell-based; details: compound in culture media 8-18 h
Method: Western blots (probed with anti-SUMO2/3 antibodies) of cell lysates from MCF-7 cells treated with the inhibitor. SUMO2/3 modifies many proteins as poly-SUMO chains, and is detected as high molecular weight smears.
In this experiment, the compound was added to cell culture media at the indicated concentrations for 8-18 h. Then SUMOylated proteins were detected using anti-SUMO antibodies.

SMILES	SUMO (AlphaScreen-BSA) IC50 (SUMO E1 or SUMO E2) [µM]	% Remaining after 60 min in 50 mM Tris (−BSA) [1] [%]	Stability in Tris buffer, in words [1]	Inhibition of SUMO E1, potency in words (SUMO E1 [2])	Inhibition of SUMO E1, potency in words (SUMO E1 [2]; listed as MLS0437113)	Inhibitory effect on SUMOylation, comparison within the series (SUMO E1 [4])	SUMO-RanGap1 and SUMO-E2 Conjugation Inhibition (SUMO E1 [4])	% Remaining after 60 min in 50 mM Tris (+BSA) [1] [%]	SUMO/ubiquitin Selectivity (ubiquitin E1)	Toxicity in human hepatocytes [3]	Inhibition of global SUMOylation (MCF-7 cells)
COC(=O)C1=C(C(=O)OC)[C@@]2([C@@H](Cc3ccccc3)Nc3ccccc3)C=C[C@@H]1O2 (racemic) [MLS-0437113, Dimethyl 1-(2-Phenyl-1-(phenylamino)ethyl)-7-oxabicyclo[2.2.1]hepta-2,5-diene-2,3-dicarboxylate]	0.47	0	unstable	similarly potent	submicromolar inhibition	most potent inhibitor in this series	Strong	–	–	low toxicity	–
COC(=O)C1=C(C(=O)OC)C2([C@H](Cc3ccccc3)Nc3ccccc3)C=CC1O2 (mixture of isomers) [MLS-0437114]	11.7	–	–	–	–	significantly less inhibitory	Weak	–	–	–	–
COC(=O)C1=C(C(=O)OC)C2([C@@H](Cc3ccccc3)Nc3ccc(Cl)cc3)C=CC1O2 (mixture of isomers) [MLS-0437120]	5.2	29	–	–	–	more inhibitory than MLS-0437121	Weak	–	–	–	–
COC(=O)C1=C(C(=O)OC)C2([C@H](Cc3ccccc3)Nc3ccc(Cl)cc3)C=CC1O2 (mixture of isomers) [MLS-0437121]	9.2	–	–	–	–	–	Very Weak	–	–	–	–
COC(=O)C1=C(C(=O)OC)C2([C@@H](Cc3ccccc3)Nc3ccc(C)cc3)C=CC1O2 (stereo partly shown) [MLS-0437109]	6.9	–	–	–	–	–	Weak	–	–	–	–

Now from value to compound, other results behind:

SUMO (AlphaScreen-BSA) IC50 (SUMO E1 or SUMO E2) [µM]	% Remaining after 60 min in 50 mM Tris (−BSA) [1] [%]	Stability in Tris buffer, in words [1]	Inhibition of SUMO E1, potency in words (SUMO E1 [2])	Inhibition of SUMO E1, potency in words (SUMO E1 [2]; listed as MLS0437113)	Inhibitory effect on SUMOylation, comparison within the series (SUMO E1 [4])	SUMO-RanGap1 and SUMO-E2 Conjugation Inhibition (SUMO E1 [4])	% Remaining after 60 min in 50 mM Tris (+BSA) [1] [%]	SUMO/ubiquitin Selectivity (ubiquitin E1)	SMILES	Toxicity in human hepatocytes [3]	Inhibition of global SUMOylation (MCF-7 cells)
–	48	–	–	–	–	–	89	>100	CCC[C@H](Nc1ccccc1)C12C=C[C@H](O1)C(C(=O)OC)=C2C(=O)OC (stereo in doubt) [MLS-0437313]	–	–
–	86	stable	high potency	–	–	–	85	>100	COC(=O)C1=C(C(=O)OC)C2([C@@H](Nc3ccccc3)c3ccc(C)cc3)C=C[C@@H]1O2 (stereo in doubt) [MLS-0437317]	–	inhibited global SUMOylation in a dose-dependent manner
